Experimental data from US9938263B2, “Gamma-secretase modulators” (The Regents of the University of California, A California …, priority 2013, dated 2018).
pIC50: −log10 of the molar value.

tested on: Aβ42; assay: cell-based moderate throughput Aβ42 ELISA in SH-SY5Y-APP cells; conditions: Homo sapiens, SH-SY5Y, human SHSY5Y neuroblastoma cells stably overexpressing human APP, Aβ42 secreted into media
Protocol: A variety of cell lines normally produce and secrete various Aβ peptide alloforms into the media upon culture in supportive media. Examples of cell lines routinely used to assess the ability of a compound to inhibit formation specific Aβ peptide alloforms such as Aβ42, upon treatment of the cells with various concentrations of the compound for approximately 16 h followed by determining the concentration of the various Aβ peptide alloforms in the media both with and without treatment with the compound [(e.g., HEK-293, N2a delta E9/Swe, SHSY5Y and primary cerebral cortical neuronal cultures from embryonic day 18 (E18) embryos from timed pregnant WT Sprague-Dawley rats) (Netzer, W I et al., Gleevec inhibits β-amyloid production but not Notch cleavage. See e.g., Proc. Natl. Acad. Sci. U.S.A. 2003; 100:12444-12449.
The SH-SY5Y-APP human cell line was derived by transfecting a human neuroblastoma (SH-SY5Y) cell line with a plasmid expressing wild type human APP751 cDNA and selecting for stable expression of human APP and human Aβ. In each case, the levels of Aβ42 or Aβtotal or Aβ38 peptides secreted into the media of these cells were measured using either two-site monoclonal antibody (mAb)-based sandwich ELISA assays (described herein for Aβ42 and Aβtotal) or in the case of Aβ38 EC50's, using either the Meso Scale Aβ38, 40, 42 triplex kit along with the Meso Scale Sector Imager 6000 according to the manufacturer's protocols. This SH-SY5Y-APP human cell line was used for all cell-based Aβ peptide immunochemical assays.
SH-SY5Y-APP cells were plated at 75,000 cells/well in 96-well tissue culture plates. After 16-18 h, the culture medium was replaced with fresh medium containing either compound or vehicle. Replicates of 3 wells per test concentration were used, with 10 concentrations at ½ log step intervals. Vehicle (0.12% DMSO) is included as a control.
Compounds disclosed herein were synthesized and assayed for biological activity (EC50) in a cell-based moderate throughput Aβ42 ELISA that utilizes human SHSY5Y neuroblastoma cells stably overexpressing human […] wild-type, as known in the art.

First: COc1nc(-c2csc(N3CC(O)Cn4nc5c(c43)CCC5)n2)ccc1-n1cnc(C)c1 (stereo not drawn) [15495 A]
Second: COc1nc(-c2csc(N3CC(F)Cn4nc5c(c43)CCCC5)n2)ccc1-n1cnc(C)c1 (stereo not drawn) [Cmpd 14676]
The pIC50 of the first is 0.72 log units lower: 7.28 for the first, 8.00 for the second. The second is the more potent here.

Compared with `CCn1nc2c(c1Nc1nc(-c3ccc(-n4cnc(C)c4)c(OC)n3)cs1)CCCC2` [Cmpd 003077], `CCn1nc2c(c1Nc1nc(-c3ccc(-n4cnc(C)c4)c(OC)n3)cs1)CCC2` [Cmpd 003783] is 0.23 log units higher in pIC50: 7.25 for the first, 7.48 for the second.

`COc1nc(-c2csc(Nc3c4c(nn3C(C)(C)C)CCCC4)n2)cnc1-n1cnc(C)c1` [Cmpd 004019] and `CCn1nc2c(c1Nc1nc(-c3cnc(-n4cnc(C)c4)c(OC)n3)cs1)CCCC2` [Cmpd 14257] are within 0.2 log units of each other in pIC50: 7.15 for the first, 7.05 for the second.

Going from `CCn1nc(C(F)(F)F)cc1Nc1nc(-c2ccc(-n3cnc(C)c3)c(OC)n2)cs1` [Cmpd 004102] to `COc1nc(-c2csc(Nc3cc(C4(C)CC4)nn3CC(F)(F)F)n2)ccc1-n1cnc(C)c1` [Cmpd 13921], the pIC50 rises from 7.24 to 7.57 (0.33 log units).

`COc1nc(-c2csc(Nc3c4c(nn3C)CCC4)n2)ccc1-n1cnc(C)c1` [Cmpd 004346] and `COc1nc(-c2csc(Nc3c4c(nn3CCF)CCC4)n2)ccc1-n1cnc(C)c1` [Cmpd 14106] are within 0.2 log units of each other in pIC50: 7.11 for the first, 7.19 for the second.

First: CCn1nc2c(c1Nc1nc(-c3ccc(-n4cnc(C)c4)c(OC)n3)cs1)CCC2(C)C [Cmpd 004365]
Second: CCn1nc(C2(C)CC2)cc1Nc1nc(-c2ccc(-n3cnc(C)c3)c(OC)n2)cs1 [Cmpd 13563]
The pIC50 of the first is 0.20 log units lower: 7.42 for the first, 7.62 for the second. The second is the more potent here.

`COc1nc(-c2csc(Nc3c4c(nn3CC(F)(F)F)CCC4)n2)ccc1-n1cnc(C)c1` [Cmpd 004723] and `COc1nc(-c2csc(Nc3c4c(nn3CC(C)(C)O)CCC4)n2)ccc1-n1cnc(C)c1` [Cmpd 14104] are within 0.2 log units of each other in pIC50: 7.46 for the first, 7.41 for the second.

Going from `COc1nc(-c2csc(N3CCCn4nc5c(c43)CCCC5)n2)ccc1-n1cnc(C)c1` [Cmpd 13636] to `COc1nc(-c2csc(N3CCCn4nc5c(c43)CCC5)n2)ccc1-n1cnc(C)c1` [Cmpd 14035], the pIC50 falls from 8.22 to 7.72 (0.50 log units). The first is the more potent here.

`COc1nc(-c2csc(Nc3c4c(nn3CC(C)(C)O)CCCC4)n2)ccc1-n1cnc(C)c1` [Cmpd 13674] and `COc1nc(-c2csc(Nc3c4c(nn3CCF)CCCC4)n2)ccc1-n1cnc(C)c1` [Cmpd 13680] are within 0.2 log units of each other in pIC50: 7.70 for the first, 7.77 for the second.

First: CCn1nc2c(c1Nc1nc(-c3ccc(-n4cnc(C)c4)c(OC)n3)c(CO)s1)CCCC2 [Cmpd 13765]
Second: CCn1nc2c(c1Nc1nc(-c3ccc(-n4cnc(C)c4)c(OC)n3)c(CN(C)C)s1)CCCC2 [Cmpd 14508]
The pIC50 of the first is 0.39 log units higher: 7.46 for the first, 7.07 for the second. The first is the more potent here.

`COc1nc(-c2csc(Nc3cc(C4(C)CC4)nn3C)n2)ccc1-n1cnc(C)c1` [Cmpd 13886] and `COc1nc(-c2csc(Nc3cc(C4(C)CC4)nn3CCF)n2)ccc1-n1cnc(C)c1` [Cmpd 13922] are within 0.2 log units of each other in pIC50: 7.12 for the first, 7.17 for the second.

Compared with `COc1nc(-c2csc(Nc3cc(C4(C(F)(F)F)CC4)nn3C)n2)ccc1-n1cnc(C)c1` [Cmpd 13887], `COc1nc(-c2nc(Nc3cc(C4(C)CC4)nn3CCF)cs2)ccc1-n1cnc(C)c1` [Cmpd 15746] is 0.71 log units lower in pIC50: 7.96 for the first, 7.25 for the second. The first is the more potent here.

Going from `CCn1nc2c(c1Nc1nc(-c3ccc(-n4cnc(C)c4)c(OC)n3)c(CN3CCN(C)CC3)s1)CCCC2` [Cmpd 14548] to `COc1nc(-c2nc(Nc3c4c(nn3CCF)CCCC4)sc2CN2CCN(C)CC2)ccc1-n1cnc(C)c1` [Cmpd 15003], the pIC50 rises from 7.01 to 7.30 (0.29 log units).

Going from `CCn1nc2c(c1Nc1csc(-c3ccc(-n4cnc(C)c4)c(OC)n3)n1)CCCC2` [Cmpd 14777] to `COc1nc(-c2nc(Nc3c4c(nn3CCF)CCCC4)cs2)ccc1-n1cnc(C)c1` [Cmpd 15717], the pIC50 falls from 7.66 to 7.32 (0.34 log units).

First: COc1nc(-c2csc(N3CC(N4C(=O)CCC4=O)Cn4nc5c(c43)CCCC5)n2)ccc1-n1cnc(C)c1 (stereo not drawn) [Cmpd 14780]
Second: COc1nc(-c2csc(N3CC(N4CCCC4)Cn4nc5c(c43)CCCC5)n2)ccc1-n1cnc(C)c1 (stereo not drawn) [Cmpd 14946]
The pIC50 of the first is 0.55 log units lower: 7.17 for the first, 7.72 for the second.

`COc1nc(-c2csc(N3C/C(=N\O)Cn4nc5c(c43)CCC5)n2)ccc1-n1cnc(C)c1` [Cmpd 14839] and `COc1nc(-c2csc(N3C/C(=N\O)Cn4nc5c(c43)CCCC5)n2)ccc1-n1cnc(C)c1` [Cmpd 15004] are within 0.2 log units of each other in pIC50: 7.24 for the first, 7.26 for the second.

First: COc1nc(-c2csc(N3CC(N(C)C)Cn4nc5c(c43)CCCC5)n2)ccc1-n1cnc(C)c1 (stereo not drawn) [Cmpd 14885]
Second: C=C1CN(c2nc(-c3ccc(-n4cnc(C)c4)c(OC)n3)cs2)c2c3c(nn2C1)CCCC3 [Cmpd 14945]
The pIC50 of the first is 0.23 log units lower: 7.23 for the first, 7.46 for the second. The second is the more potent here.

Compared with `COc1nc(-c2csc(N3CC(O)(CO)Cn4nc5c(c43)CCCC5)n2)ccc1-n1cnc(C)c1` (stereo not drawn) [Cmpd 15001], `CO/N=C1\CN(c2nc(-c3ccc(-n4cnc(C)c4)c(OC)n3)cs2)c2c3c(nn2C1)CCCC3` [Cmpd 15188] is 0.35 log units lower in pIC50: 7.47 for the first, 7.12 for the second. The first is the more potent here.

Compared with `COc1nc(-c2csc(N3CCC(C(C)(C)O)n4nc5c(c43)CCCC5)n2)ccc1-n1cnc(C)c1` (stereo not drawn) [Cmpd 15002], `COc1nc(-c2nc(N3CC(C)Cn4nc5c(c43)CCCC5)cs2)ccc1-n1cnc(C)c1` (stereo not drawn) [Cmpd 15830] is 0.73 log units higher in pIC50: 7.19 for the first, 7.92 for the second.

Compared with `COc1nc(-c2nc(Nc3c4c(nn3CCF)CCCC4)sc2CN2CCC(F)(F)C2)ccc1-n1cnc(C)c1` [Cmpd 15473], `COc1nc(-c2nc(N3CCCn4nc5c(c43)CCCC5)cs2)ccc1-n1cnc(C)c1` [Cmpd 15635] is 1.15 log units higher in pIC50: 7.00 for the first, 8.15 for the second.

Compared with `CCn1nc(C2(C)CC2)cc1Nc1csc(-c2ccc(-n3cnc(C)c3)c(OC)n2)n1` [Cmpd 15587], `COc1nc(-c2nc(N3CC(C)Cn4nc(C5(C)CC5)cc43)cs2)ccc1-n1cnc(C)c1` (stereo not drawn) [Cmpd 15868] is 0.33 log units lower in pIC50: 7.85 for the first, 7.52 for the second.

Going from `COc1nc(-c2nc(N3CCCn4nc(C5(C)CC5)cc43)cs2)ccc1-n1cnc(C)c1` [Cmpd 15666] to `COc1nc(-c2nc(N3CCCn4nc5c(c43)CCC5)cs2)ccc1-n1cnc(C)c1` [Cmpd 15669], the pIC50 rises from 7.74 to 8.30 (0.56 log units).

Compared with `COc1nc(-c2nc(N3CC(C)Cn4nc5c(c43)CCC5)cs2)ccc1-n1cnc(C)c1` (stereo not drawn) [Cmpd 15670], `COc1nc(-c2nc(N3CCCn4nc5c(c43)CCCC5)ns2)ccc1-n1cnc(C)c1` [Cmpd 16211] is 0.41 log units lower in pIC50: 7.80 for the first, 7.39 for the second. The first is the more potent here.

same assay, conditions: human SHSY5Y neuroblastoma cells stably overexpressing human APP, Aβ42 secreted into media

Going from `COc1nc(-c2csc(N3CC(O)Cn4nc5c(c43)CCCC5)n2)ccc1-n1cnc(C)c1` (stereo not drawn) [14789 A] to `COc1nc(-c2csc(N3CC(O)Cn4nc5c(c43)CCC5)n2)ccc1-n1cnc(C)c1` (stereo not drawn) [15496 B], the pIC50 falls from 8.30 to 7.48 (0.82 log units).

`COc1nc(-c2csc(N3CC(O)Cn4nc5c(c43)CCCC5)n2)ccc1-n1cnc(C)c1` (stereo not drawn) [14789 B] and `COc1nc(-c2csc(N3CC(O)Cn4nc5c(c43)CCC5)n2)ccc1-n1cnc(C)c1` (stereo not drawn) [Cmpd 14200] are within 0.2 log units of each other in pIC50: 7.52 for the first, 7.36 for the second.

`COc1nc(-c2csc(N3CC(O)Cn4nc5c(c43)CCCC5)n2)ccc1-n1cnc(C)c1` (stereo not drawn) [Cmpd 14507] showed a pIC50 of 7.77.
